Experimental findings from article PMC12148948, “Targeting enabled homolog with daunorubicin inhibits ERK1/2/c‐Fos pathway and suppresses hepatocellular carcinoma progression” (Clinical and Translational Medicine, 2025) are described below.

In this assay the target is T1, enabled homolog (ENAH) (Homo sapiens, UniProt Q8N8S7).
T1 sequence (Q8N8S7 1-591): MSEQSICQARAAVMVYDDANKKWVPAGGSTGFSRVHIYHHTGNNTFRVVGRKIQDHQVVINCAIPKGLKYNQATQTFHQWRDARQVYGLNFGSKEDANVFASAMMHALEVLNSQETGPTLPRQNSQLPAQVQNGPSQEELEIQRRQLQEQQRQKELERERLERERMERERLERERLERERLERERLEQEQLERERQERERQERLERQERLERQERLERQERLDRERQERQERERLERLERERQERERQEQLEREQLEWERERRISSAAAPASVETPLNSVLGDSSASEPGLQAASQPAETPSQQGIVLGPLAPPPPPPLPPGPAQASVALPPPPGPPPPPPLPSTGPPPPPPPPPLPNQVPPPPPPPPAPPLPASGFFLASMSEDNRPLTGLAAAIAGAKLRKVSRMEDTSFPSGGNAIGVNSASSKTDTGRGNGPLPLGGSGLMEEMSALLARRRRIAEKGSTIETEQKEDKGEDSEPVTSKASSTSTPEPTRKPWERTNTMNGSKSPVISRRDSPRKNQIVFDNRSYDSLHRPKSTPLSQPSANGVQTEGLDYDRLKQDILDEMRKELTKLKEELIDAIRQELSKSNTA
Nature of the assay: CETSA in HCCLM3 cells ([…] daunorubicin), western blot. Type of assay: cell-based. Background: A western blot detects proteins with antibodies after separation by electrophoresis.

Take `COc1cccc2c1C(=O)c1c(O)c3c(c(O)c1C2=O)C[C@@](O)(C(C)=O)C[C@@H]3O[C@H]1C[C@H](N)[C@H](O)[C@H](C)O1` [compound 11, daunorubicin]: the “CETSA in HCCLM3 cells (1 μM daunorubicin), western blot” value was “The interaction between ENAH and daunorubicin was confirmed by the cellular thermal shift assay (CETSA)”.
